In PubChem BioAssay AID1963963 (Molecular Pharmacology Branch, DTP, NCI, 2024):
Values belong to the molecule of their own block, whether it stands above or below them.

Test system: 958667-338-R-J2-PDC tumor spheroids viability
Assay: Anticancer human tumor 958667-338-R-J2-PDC patient-derived colon adenocarcinoma cell line growth inhibition [PI3K]
Conditions: spheroids with HUVEC and MSC; for IC50: curve of first compound; for viability, T/C: stronger effect = lower value
Procedure, shortened: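 Targeted small molecules plus PI3K inhibitors, half-log dose series from Cmax (default top 10 microM), were applied to heterotypic spheroids of cancer cells with HUVEC and MSCs. Viability indicated growth inhibition.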

[1] = second compound 0.0316 µM, first compound 0.0316 µM
[2] = second compound 0.0316 µM, first compound 0.1 µM
[3] = second compound 0.1 µM, first compound 0.0316 µM
[4] = second compound 0.1 µM, first compound 0.1 µM
[5] = second compound 0.316 µM, first compound 0.0316 µM
[6] = second compound 0.316 µM, first compound 0.1 µM
[7] = second compound 1 µM, first compound 0.0316 µM
[8] = second compound 1 µM, first compound 0.1 µM
[9] = second compound 3.16 µM, first compound 0.0316 µM
[10] = second compound 3.16 µM, first compound 0.1 µM
[11] = second compound 10 µM, first compound 0.0316 µM
[12] = second compound 10 µM, first compound 0.1 µM
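Further: spheroids exposed to compounds for seven days before readout.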

IC50 (second compound 0.0316 µM): > 0.1 µM
IC50 (second compound 0.1 µM): > 0.1 µM
IC50 (second compound 0.316 µM): > 0.1 µM
IC50 (second compound 1 µM): > 0.1 µM
IC50 (second compound 3.16 µM): > 0.1 µM
IC50 (second compound 10 µM): > 0.1 µM
SMILES: CC(=O)c1c(C)c2cnc(Nc3ccc(N4CCNCC4)cn3)nc2n(C2CCCC2)c1=O + Cc1nc(NC(=O)N2CCCC2C(N)=O)sc1-c1ccnc(C(C)(C)C(F)(F)F)c1
viability, T/C (second compound 0.0316 µM, first compound 0.000316 µM): 104%
viability, T/C (second compound 0.0316 µM, first compound 0.001 µM): 77.1%
viability, T/C (second compound 0.0316 µM, first compound 0.00316 µM): 96%
viability, T/C (second compound 0.0316 µM, first compound 0.01 µM): 94.3%
viability, T/C [1]: 95.8%
viability, T/C [2]: 73.7%
viability, T/C (second compound 0.1 µM, first compound 0.000316 µM): 97.2%
viability, T/C (second compound 0.1 µM, first compound 0.001 µM): 96.8%
viability, T/C (second compound 0.1 µM, first compound 0.00316 µM): 106%
viability, T/C (second compound 0.1 µM, first compound 0.01 µM): 88.7%
viability, T/C [3]: 103%
viability, T/C [4]: 94.7%
viability, T/C (second compound 0.316 µM, first compound 0.000316 µM): 104%
viability, T/C (second compound 0.316 µM, first compound 0.001 µM): 83.1%
viability, T/C (second compound 0.316 µM, first compound 0.00316 µM): 84.4%
viability, T/C (second compound 0.316 µM, first compound 0.01 µM): 91.5%
viability, T/C [5]: 78.1%
viability, T/C [6]: 73.7%
viability, T/C (second compound 1 µM, first compound 0.000316 µM): 87.8%
viability, T/C (second compound 1 µM, first compound 0.001 µM): 78.5%
viability, T/C (second compound 1 µM, first compound 0.00316 µM): 73.4%
viability, T/C (second compound 1 µM, first compound 0.01 µM): 62.2%
viability, T/C [7]: 74.5%
viability, T/C [8]: 66.2%
viability, T/C (second compound 3.16 µM, first compound 0.000316 µM): 72%
viability, T/C (second compound 3.16 µM, first compound 0.001 µM): 74%
viability, T/C (second compound 3.16 µM, first compound 0.00316 µM): 59.3%
viability, T/C (second compound 3.16 µM, first compound 0.01 µM): 67.2%
viability, T/C [9]: 70.3%
viability, T/C [10]: 71.9%
viability, T/C (second compound 10 µM, first compound 0.000316 µM): 52.8%
viability, T/C (second compound 10 µM, first compound 0.001 µM): 55.5%
viability, T/C (second compound 10 µM, first compound 0.00316 µM): 52.2%
viability, T/C (second compound 10 µM, first compound 0.01 µM): 55.4%
viability, T/C [11]: 51.4%
viability, T/C [12]: 58.5%

IC50 (second compound 0.0316 µM): > 10 µM
IC50 (second compound 0.1 µM): > 10 µM
IC50 (second compound 0.316 µM): > 10 µM
IC50 (second compound 1 µM): > 10 µM
IC50 (second compound 3.16 µM): > 10 µM
IC50 (second compound 10 µM): > 10 µM
SMILES: C[C@@H](NC(=O)c1ncnc(N)c1Cl)c1ncc(C(=O)Nc2cc(C(F)(F)F)c(Cl)cn2)s1 + CC(Nc1ncnc2nc[nH]c12)c1cc2cccc(Cl)c2c(=O)n1-c1ccccc1
viability, T/C [1]: 129%
viability, T/C [2]: 114%
viability, T/C (second compound 0.0316 µM, first compound 0.316 µM): 99.7%
viability, T/C (second compound 0.0316 µM, first compound 1 µM): 95.9%
viability, T/C (second compound 0.0316 µM, first compound 3.16 µM): 84.1%
viability, T/C (second compound 0.0316 µM, first compound 10 µM): 74.9%
viability, T/C [3]: 98%
viability, T/C [4]: 115%
viability, T/C (second compound 0.1 µM, first compound 0.316 µM): 99.9%
viability, T/C (second compound 0.1 µM, first compound 1 µM): 108%
viability, T/C (second compound 0.1 µM, first compound 3.16 µM): 97.6%
viability, T/C (second compound 0.1 µM, first compound 10 µM): 73.3%
viability, T/C [5]: 98.2%
viability, T/C [6]: 106%
viability, T/C (second compound 0.316 µM, first compound 0.316 µM): 96.3%
viability, T/C (second compound 0.316 µM, first compound 1 µM): 102%
viability, T/C (second compound 0.316 µM, first compound 3.16 µM): 94.3%
viability, T/C (second compound 0.316 µM, first compound 10 µM): 94.3%
viability, T/C [7]: 83.7%
viability, T/C [8]: 93.3%
viability, T/C (second compound 1 µM, first compound 0.316 µM): 102%
viability, T/C (second compound 1 µM, first compound 1 µM): 100%
viability, T/C (second compound 1 µM, first compound 3.16 µM): 89.1%
viability, T/C (second compound 1 µM, first compound 10 µM): 73.2%
viability, T/C [9]: 112%
viability, T/C [10]: 89%
viability, T/C (second compound 3.16 µM, first compound 0.316 µM): 96.1%
viability, T/C (second compound 3.16 µM, first compound 1 µM): 82.6%
viability, T/C (second compound 3.16 µM, first compound 3.16 µM): 99.4%
viability, T/C (second compound 3.16 µM, first compound 10 µM): 75.5%
viability, T/C [11]: 110%
viability, T/C [12]: 98.5%
viability, T/C (second compound 10 µM, first compound 0.316 µM): 96.5%
viability, T/C (second compound 10 µM, first compound 1 µM): 96.1%
viability, T/C (second compound 10 µM, first compound 3.16 µM): 92.9%
viability, T/C (second compound 10 µM, first compound 10 µM): 107%
